Values quoted from earlier work, collected in PubChem BioAssay AID1259409 (Chemical Carcinogenesis Research Information System (CCRIS), 2018).
“And” between values parts separate entries of the source, which are not always exact repeats. Identical values can stand only once.

Test system: rodent chemically induced tumor inhibition, incidence and multiplicity
Test: CCRIS tumor inhibitor studies
Settings: Route [Inhibitor]: ORAL

SMILES: [Se]
- tumour outcome (control, treated, inhibition, significance) (Carcinogen: 1,2-DIMETHYLHYDRAZINE, 540-73-8, Dose [Inhibitor]: 0, 0.2, 5 PPM IN DIET BEGINNING 1 D PRIOR TO CARCINOGEN TREATMENT AND CONTINUING FOR DURATION OF STUDY (STUDY DURATION:, Dose [Inhibitor]: 0, 0.2, 5 PPM IN DIET BEGINNING 1 D PRIOR TO CARCINOGEN TREATMENT AND CONTINUING FOR DURATION OF STUDY (STUDY DURATION:, Species: RAT, Strain/Sex: SPRAGUE-DAWLEY/MALE, Target Tissue: Type of Lesion: DISTAL COLON: ADENOCARCINOMA, Dose [Carcinogen]: 20 MG/KG 1/WK FOR 20 WK, Promoter: NONE USED): 94%, 81%, 14%, not significant
- tumour outcome (control, treated, inhibition, significance) (Carcinogen: 3,2'-DIMETHYL-4-AMINOBIPHENYL, 13394-86-0, Dose [Inhibitor]: 0, 2 PPM IN BASAL DIET BEGINNING POST CARCINOGEN TREATMENT AND CONTINUING FOR 40 WK (STUDY DURATION: 60 WK), Species: RAT, Strain/Sex: F344/MALE, Target Tissue: Type of Lesion: LARGE INTESTINE: ADENOMA AND CARCINOMA, Dose [Carcinogen]: 50 MG/KG 1/2 WK FOR 20 WK TO RATS MAINTAINED ON ETHINYL ESTRADIOL CONTAINING DIET (0.75 PPM) FOR 1 WK CYCLED WITH ETHINY, Promoter: ETHINYL ESTRADIOL, 57-63-6): 3/10 (30%), 0/11 (0%), 100%, not significant
- tumour outcome (control, treated, inhibition, significance) (Carcinogen: 3,2'-DIMETHYL-4-AMINOBIPHENYL, 13394-86-0, Dose [Inhibitor]: 0, 2 PPM IN BASAL DIET BEGINNING POST CARCINOGEN TREATMENT AND CONTINUING FOR 40 WK (STUDY DURATION: 60 WK), Species: RAT, Strain/Sex: F344/MALE, Target Tissue: Type of Lesion: PANCREAS: ACINAR CELL NODULE, Dose [Carcinogen]: 50 MG/KG 1/2 WK FOR 20 WK TO RATS MAINTAINED ON ETHINYL ESTRADIOL CONTAINING DIET (0.75 PPM) FOR 1 WK CYCLED WITH ETHINY, Promoter: ETHINYL ESTRADIOL, 57-63-6): 4/10 (40%), 4/11 (36%), 10%, not significant
- tumour outcome (control, treated, inhibition, significance) (Carcinogen: 3,2'-DIMETHYL-4-AMINOBIPHENYL, 13394-86-0, Dose [Inhibitor]: 0, 2 PPM IN BASAL DIET BEGINNING POST CARCINOGEN TREATMENT AND CONTINUING FOR 40 WK (STUDY DURATION: 60 WK), Species: RAT, Strain/Sex: F344/MALE, Target Tissue: Type of Lesion: PREPUTIAL GLAND: ADENOMA AND CARCINOMA, Dose [Carcinogen]: 50 MG/KG 1/2 WK FOR 20 WK TO RATS MAINTAINED ON ETHINYL ESTRADIOL CONTAINING DIET (0.75 PPM) FOR 1 WK CYCLED WITH ETHINY, Promoter: ETHINYL ESTRADIOL, 57-63-6): 5/10 (50%), 6/11 (55%), -10%, not significant
- tumour outcome (control, treated, inhibition, significance) (Carcinogen: 3,2'-DIMETHYL-4-AMINOBIPHENYL, 13394-86-0, Dose [Inhibitor]: 0, 2 PPM IN BASAL DIET BEGINNING POST CARCINOGEN TREATMENT AND CONTINUING FOR 40 WK (STUDY DURATION: 60 WK), Species: RAT, Strain/Sex: F344/MALE, Target Tissue: Type of Lesion: SMALL INTESTINE: ADENOMA AND ADENOCARCINOMA, Dose [Carcinogen]: 50 MG/KG 1/2 WK FOR 20 WK TO RATS MAINTAINED ON ETHINYL ESTRADIOL CONTAINING DIET (0.75 PPM) FOR 1 WK CYCLED WITH ETHINY, Promoter: ETHINYL ESTRADIOL, 57-63-6): 2/10 (20%), 2/11 (18%), 10%, not significant
- tumour outcome (control, treated, inhibition, significance) (Carcinogen: 3,2'-DIMETHYL-4-AMINOBIPHENYL, 13394-86-0, Dose [Inhibitor]: 0, 2 PPM IN BASAL DIET BEGINNING POST CARCINOGEN TREATMENT AND CONTINUING FOR 40 WK (STUDY DURATION: 60 WK), Species: RAT, Strain/Sex: F344/MALE, Target Tissue: Type of Lesion: SUBCUTIS: TUMOR, Dose [Carcinogen]: 50 MG/KG 1/2 WK FOR 20 WK TO RATS MAINTAINED ON ETHINYL ESTRADIOL CONTAINING DIET (0.75 PPM) FOR 1 WK CYCLED WITH ETHINY, Promoter: ETHINYL ESTRADIOL, 57-63-6): 1/10 (10%), 0/11 (0%), 100%, not significant
- tumour outcome (control, treated, inhibition, significance) (Carcinogen: 3,2'-DIMETHYL-4-AMINOBIPHENYL, 13394-86-0, Dose [Inhibitor]: 0, 2 PPM IN BASAL DIET BEGINNING POST CARCINOGEN TREATMENT AND CONTINUING FOR 40 WK (STUDY DURATION: 60 WK), Species: RAT, Strain/Sex: F344/MALE, Target Tissue: Type of Lesion: ZYMBAL GLAND: ADENOMA AND CARCINOMA, Dose [Carcinogen]: 50 MG/KG 1/2 WK FOR 20 WK TO RATS MAINTAINED ON ETHINYL ESTRADIOL CONTAINING DIET (0.75 PPM) FOR 1 WK CYCLED WITH ETHINY, Promoter: ETHINYL ESTRADIOL, 57-63-6): 2/10 (20%), 2/11 (18%), 10%, not significant
- tumour outcome (control, treated, inhibition, significance) (Carcinogen: 3,2-DIMETHYL-4-AMINOBIPHENYL, 13394-86-0, Dose [Inhibitor]: 0, 2 PPM IN BASAL DIET BEGINNING POST CARCINOGEN TREATMENT AND CONTINUING FOR 40 WK (STUDY DURATION: 60 WK), Species: RAT, Strain/Sex: F344/MALE, Target Tissue: Type of Lesion: PROSTATE: CARCINOMA, Dose [Carcinogen]: 50 MG/KG 1/2 WK FOR 20 WK TO RATS MAINTAINED ON ETHINYL ESTRADIOL CONTAINING DIET (0.75 PPM) FOR 1 WK CYCLED WITH ETHINY, Promoter: ETHINYL ESTRADIOL, 57-63-6): 5/10 (50%), 4/11 (36%), 28%, not significant
- tumour outcome (control, treated, inhibition, significance) (Carcinogen: DINITROSOPIPERAZINE, 140-79-4, Dose [Inhibitor]: 0, 2 UG/G DIET IN YEAST CONCURRENTLY WITH CARCINOGEN AND CONTINUED FOR STUDY DURATION (STUDY DURATION: 13.5 MO), Species: RAT, Strain/Sex: CD-1/MALE, FEMALE, Target Tissue: Type of Lesion: NASAL PHARYNX: CARCINOMA, Dose [Carcinogen]: 1.5 MG IN WATER 2/WK FOR 5 WK FOLLOWED BY 3 MG IN WATER 2/WK FOR 17.5 WK (TOTAL DOSE: 120 MG)): 5/31(16%), 1/22(5%), 69%, p 0.025
- tumour outcome (control, treated, inhibition, significance) (Carcinogen: NONE USED, Dose [Inhibitor]: 0.5 PPM IN DRINKING WATER DAILY FOR DURATION OF STUDY (STUDY DURATION: 2 YR), Species: MOUSE, Strain/Sex: C3H/FEMALE, Target Tissue: Type of Lesion: MAMMARY GLAND: ADENOCARCINOMA, Promoter: NONE USED): 64%, 25%, 61%, p<0.01
- tumour outcome (control, treated, inhibition, significance) (Carcinogen: NONE USED, Dose [Inhibitor]: 2 PPM IN A 10% BUTTER DIET DAILY FOR DURATION OF STUDY (STUDY DURATION: 2 YR), Species: MOUSE, Strain/Sex: C3H/FEMALE, Target Tissue: Type of Lesion: MAMMARY GLAND: ADENOCARCINOMA, Promoter: NONE USED): 65%, 72%, -11%, not significant
- tumour outcome (control, treated, inhibition, significance) (Carcinogen: NONE USED, Dose [Inhibitor]: 2 PPM IN A 10% CORN OIL DIET DAILY FOR DURATION OF STUDY (STUDY DURATION: 2 Y R), Species: MOUSE, Strain/Sex: C3H/FEMALE, Target Tissue: Type of Lesion: MAMMARY GLAND: ADENOCARCINOMA, Promoter: NONE USED): 70%, 72%, -3%, not significant
- tumour outcome (control, treated, inhibition, significance) (Carcinogen: NONE USED, Dose [Inhibitor]: 2 PPM IN A 10% LARD DIET DAILY FOR DURATION OF STUDY (STUDY DURATION: 2 YR), Species: MOUSE, Strain/Sex: C3H/FEMALE, Target Tissue: Type of Lesion: MAMMARY GLAND: ADENOCARCINOMA, Promoter: NONE USED): 53%, 52%, 2%, not significant
- tumour outcome (control, treated, inhibition, significance) (Carcinogen: NONE USED, Dose [Inhibitor]: 2 PPM IN A 10% RAPE SEED OIL DIET DAILY FOR DURATION OF STUDY (STUDY DURATION : 2 YR), Species: MOUSE, Strain/Sex: C3H/FEMALE, Target Tissue: Type of Lesion: MAMMARY GLAND: ADENOCARCINOMA, Promoter: NONE USED): 63%, 65%, -3%, not significant
- tumour outcome (control, treated, inhibition, significance) (Carcinogen: NONE USED, Dose [Inhibitor]: 2 PPM IN DRINKING WATER DAILY FOR DURATION OF STUDY (STUDY DURATION: 2 YR), Species: MOUSE, Strain/Sex: C3H/FEMALE, Target Tissue: Type of Lesion: MAMMARY GLAND: ADENOCARCINOMA, Promoter: NONE USED): 44%, 40%, 9%, not calculated and 64%, 25%, 61%, p<0.01
